Test results taken from paper PMC12042115 (mLife, 2025).

System: wild‐type BCG cells
Format: cell-based, M. bovis BCG
Settings: protein A0A0H3MG19, BCG_2669 (Rv2642), Arsenical resistance operon repressor; down-regulated; 3 d

O=C(Oc1ccc(Cl)cc1)c1ccc(N2CCOCC2)c([N+](=O)[O-])c1 [GDI‐5755]
Mean_Ratio (GDI5755_3d vs DMSO_3d): 0.7
